Measurements published in patent publication US20180246095A1, “COMPOSITIONS AND METHODS FOR DIAGNOSING AND TREATING LYME DISEASE” (priority 2015, published 2018).

System: B. burgdorferi B31
Experiment: RNA-Seq gene expression profile of B. burgdorferi persisters that survived antibiotic treatment, compared with drug free control
Type: cell-based, Borrelia burgdorferi
Method: RNA Sequencing (RNA-Seq) was performed to determine the gene expression profile of B. burgdorferi persisters that survived antibiotic treatment using next generation sequencing to shed light on the mechanisms of B. burgdorferi persistence. B. burgdorferi B31 cultures were grown for 5 days to 1×10^7 spirochetes/ml in BSK-H medium followed by treatment with 50 μg/ml doxycycline or 50 μg/ml amoxicillin for 6 days. Triplicate biological samples were used for each group. The total RNA was extracted and ribosomal RNA was removed prior to preparation of cDNA libraries for Illumina sequencing. […] The RNA-Seq data was analyzed by BLAST analysis and mapped to KEGG pathways.

`CC1(C)S[C@@H]2[C@H](NC(=O)[C@H](N)c3ccc(O)cc3)C(=O)N2[C@H]1C(=O)O` [Amo] was tested, and the “Expression predicted RNA antisense: BB_0034” value was 64256, the “Expression predicted RNA antisense: BB_0147” value was 71642 and the “Expression predicted RNA antisense: BB_0269” value was 39823. For the same compound, the “Expression predicted RNA antisense: BB_0465” value was 29768, the “Expression predicted RNA antisense: BB_0559” value was 39487 and the “Expression predicted RNA antisense: BB_0631” value was 35398. For the same compound, the “Expression predicted RNA antisense: BB_A59” value was 70553, the “Expression predicted RNA antisense: BB_B22” value was 44966 and the “Expression predicted RNA antisense: fusA” value was 45574. For the same compound, the “Expression predicted RNA antisense: lp6.6” value was 140114, the “Expression predicted RNA antisense: napA” value was 19231 and the “Expression predicted RNA antisense: ospA ospB” value was 102443. The “Expression predicted RNA antisense: rpsM” value was 33897, the “Expression predicted RNA antisense: tRNA-Gln-1 BB_0786” value was 25214 and the “Expression 5S_rrlB BB_r03” value (5S ribosomal RNA) was 0. The “Expression lp6.6 BB_A62” value (6.6 kDa lipoprotein) was 115, the “Expression 23S_rrlA BB_r02” value (23S ribosomal RNA) was 3005 and the “Expression 23S_rrlB BB_r04” value (23S ribosomal RNA) was 3039. The “Expression rpsH BB_0492” value (30S ribosomal protein S8) was 14, the “Expression rpsI BB_0338” value (30S ribosomal protein S9) was 66 and the “Expression rpsQ BB_0487” value (30S ribosomal protein S17) was 2. The “Expression rpsU BB_0256” value (30S ribosomal protein S21) was 34, the “Expression rplI BB_0112” value (50S ribosomal protein L9) was 23 and the “Expression rplM BB_0339” value (50S ribosomal protein L13) was 21. The “Expression rplQ BB_0503” value (50S ribosomal protein L17) was 17, the “Expression rplX BB_0489” value (50S ribosomal protein L24) was 6 and the “Expression rpmC BB_0486” value (50S ribosomal protein L29) was 0. The “Expression rpmE BB_0229” value (50S ribosomal protein L31) was 52, the “Expression rpmF BB_0703” value (50S ribosomal protein L32) was 28 and the “Expression rpmJ BB_0499” value (50S ribosomal protein L36) was 14. For the same compound, the “Expression tRNA-Ala-1 BB_t05” value (Ala tRNA) was 0, the “Expression BB_t21” value (Arg tRNA) was 0 and the “Expression tRNA-Asn-1 BB_t11” value (Asn tRNA) was 26. The “Expression tRNA-Asp-1 BB_t12” value (Asp tRNA) was 0, the “Expression bdrH BB_R27” value (BdrH) was 15 and the “Expression bdrK BB_M34” value (BdrK) was 0. The “Expression bdrR BB_N27” value (BdrR protein) was 0, the “Expression erpK BB_M38” value (ErpK protein) was 0 and the “Expression thyX BB_A76” value (FAD-dependent thymidylate synthase) was 3. For the same compound, the “Expression tRNA-Gln-1 BB_t18” value (Gln tRNA) was 0, the “Expression BB_t25” value (Gly tRNA) was 1187 and the “Expression BB_0087” value (L-lactate dehydrogenase) was 48. For the same compound, the “Expression tRNA-Leu-4 BB_t17” value (Leu tRNA) was 15, the “Expression BB_t23” value (Lys tRNA) was 0 and the “Expression BB_0262” value (M23 peptidase domain-containing protein) was 145. For the same compound, the “Expression BB_t28” value (Met tRNA) was 0, the “Expression BB_A64” value (P35 antigen) was 9453 and the “Expression BB_P32” value (PF-32 protein) was 15. The “Expression BB_M33” value (PF-49 protein) was 0, the “Expression BB_P33” value (PF-49 protein) was 0 and the “Expression BB_0559” value (PTS system glucose-specific transporter subunit IIA) was 177. The “Expression BB_t30” value (Phe tRNA) was 0, the “Expression BB_F03” value (RepU) was 0 and the “Expression BB_t20” value (Ser tRNA) was 7. For the same compound, the “Expression tRNA-Ser-3 BB_t06” value (Ser tRNA) was 0, the “Expression smpB BB_0033” value (SsrA-binding protein) was 176 and the “Expression BB_t33” value (Thr tRNA) was 11. For the same compound, the “Expression murB BB_0598” value (UDP-N-acetylenolpyruvoylglucosamine reductase) was 249, the “Expression BB_0090” value (V-type ATP synthase subunit K) was 1 and the “Expression BB_H33” value (adenine deaminase) was 2. The “Expression BB_H32” value (antigen P35) was 5, the “Expression lnt BB_0237” value (apolipoprotein N-acyltransferase) was 2060 and the “Expression BB_0582” value (carboxypeptidase) was 96. For the same compound, the “Expression cheR BB_0040” value (chemotaxis protein methyltransferase) was 233, the “Expression BB_H06” value (complement regulator-acquiring surface protein) was 10 and the “Expression cdd BB_0618” value (cytidine deaminase) was 267. For the same compound, the “Expression flgB BB_0294” value (flagellar basal body rod protein FlgB) was 5, the “Expression fliL BB_0279” value (flagellar basal body-associated protein FliL) was 6 and the “Expression BB_0287” value (flagellar protein FlbA) was 0. For the same compound, the “Expression BB_0147” value (flagellin) was 73, the “Expression BB_0138” value (gene BB_0138, hypothetical protein) was 0 and the “Expression BB_0305” value (gene BB_0305, hypothetical protein) was 0. The “Expression BB_0321” value (gene BB_0321, hypothetical protein) was 4, the “Expression BB_A21” value (gene BB_A21, PF-49 protein) was 1 and the “Expression BB_E09” value (gene BB_E09, protein p23) was 0. The “Expression BB_E16” value (gene BB_E16, hypothetical protein) was 0, the “Expression BB_E17” value (gene BB_E17, hypothetical protein) was 0 and the “Expression BB_E18” value (gene BB_E18, hypothetical protein) was 0. For the same compound, the “Expression BB_E19” value (gene BB_E19, hypothetical protein) was 0, the “Expression BB_E20” value (gene BB_E20, hypothetical protein) was 0 and the “Expression BB_E21” value (gene BB_E21, hypothetical protein) was 0. The “Expression BB_E22” value (gene BB_E22, pyrazinamidase/nicotinamidase PncA) was 0, the “Expression BB_E31” value (gene BB_E31, antigen, P35, putative) was 0 and the “Expression BB_F01” value (gene BB_F01, hypothetical protein) was 0. For the same compound, the “Expression BB_F02” value (gene BB_F02, hypothetical protein) was 0, the “Expression BB_F06” value (gene BB_F06, hypothetical protein) was 0 and the “Expression BB_F08” value (gene BB_F08, hypothetical protein) was 0. The “Expression BB_F14” value (gene BB_F14, hypothetical protein) was 0, the “Expression BB_F17” value (gene BB_F17, putative transmembrane protein) was 0 and the “Expression BB_F20” value (gene BB_F20, BBF20) was 0. For the same compound, the “Expression BB_F23” value (gene BB_F23, PF49) was 0, the “Expression BB_F24” value (gene BB_F24, PF32) was 0 and the “Expression BB_F25” value (gene BB_F25, hypothetical protein) was 0. For the same compound, the “Expression BB_F26” value (gene BB_F26, hypothetical protein) was 0, the “Expression BB_F0034” value (gene BB_F0034, hypothetical protein) was 0 and the “Expression BB_F0039” value (gene BB_F0039, hypothetical protein) was 0. For the same compound, the “Expression BB_F0040” value (gene BB_F0040, hypothetical protein) was 0, the “Expression BB_F0041” value (gene BB_F0041, outer surface protein VlsE1) was 0 and the “Expression BB_I01” value (gene BB_I01, hypothetical protein) was 0. The “Expression BB_I02” value (gene BB_I02, hypothetical protein) was 0, the “Expression BB_I06” value (gene BB_I06, MTA/SAH nucleosidase) was 0 and the “Expression BB_I12” value (gene BB_I12, hypothetical protein) was 0. For the same compound, the “Expression BB_I15” value (gene BB_I15, virulence associated lipoprotein) was 0, the “Expression BB_I18” value (gene BB_I18, hypothetical protein) was 0 and the “Expression BB_I19” value (gene BB_I19, hypothetical protein) was 0. For the same compound, the “Expression BB_I20” value (gene BB_I20, hypothetical protein) was 0, the “Expression BB_I21” value (gene BB_I21, PF-32 protein) was 0 and the “Expression BB_I22” value (gene BB_I22, PF-49 protein) was 0. For the same compound, the “Expression BB_I26” value (gene BB_I26, multidrug-efflux transporter) was 0, the “Expression BB_I29” value (gene BB_I29, virulence associated lipoprotein) was 0 and the “Expression BB_I34” value (gene BB_I34, virulence associated lipoprotein) was 0. For the same compound, the “Expression BB_I36” value (gene BB_I36, antigen P35) was 0, the “Expression BB_I38” value (gene BB_I38, surface antigen) was 0 and the “Expression BB_I41” value (gene BB_I41, hypothetical protein) was 0. For the same compound, the “Expression BB_I42” value (gene BB_I42, outer membrane protein) was 0, the “Expression BB_J42” value (gene BB_J42, hypothetical protein) was 0 and the “Expression BB_J0058” value (gene BB_J0058, hypothetical protein) was 0. The “Expression BB_K01” value (gene BB_K01, lipoprotein) was 0, the “Expression BB_K07” value (gene BB_K07, lipoprotein) was 0 and the “Expression BB_K09” value (gene BB_K09, hypothetical protein) was 0. For the same compound, the “Expression BB_K13” value (gene BB_K13, hypothetical protein) was 0, the “Expression BB_K15” value (gene BB_K15, antigen P35) was 0 and the “Expression BB_K17” value (gene BB_K17, adenine deaminase) was 0. For the same compound, the “Expression BB_K19” value (gene BB_K19, lipoprotein) was 0, the “Expression BB_K21” value (gene BB_K21, PF-32 protein) was 0 and the “Expression BB_K22” value (gene BB_K22, hypothetical protein) was 0. The “Expression BB_K23” value (gene BB_K23, hypothetical protein) was 0, the “Expression BB_K24” value (gene BB_K24, PF-49 protein) was 0 and the “Expression BB_K32” value (gene BB_K32, fibronectin-binding protein) was 0. The “Expression BB_K33” value (gene BB_K33, hypothetical protein) was 0, the “Expression BB_K34” value (gene BB_K34, hypothetical protein) was 0 and the “Expression BB_K35” value (gene BB_K35, hypothetical protein) was 0. The “Expression BB_K40” value (gene BB_K40, hypothetical protein) was 0, the “Expression BB_K41” value (gene BB_K41, hypothetical protein) was 0 and the “Expression BB_K42” value (gene BB_K42, hypothetical protein) was 0. The “Expression BB_K45” value (gene BB_K45, immunogenic protein P37) was 0, the “Expression BB_K47” value (gene BB_K47, hypothetical protein) was 0 and the “Expression BB_K48” value (gene BB_K48, immunogenic protein P37) was 0. For the same compound, the “Expression BB_K49” value (gene BB_K49, hypothetical protein) was 0, the “Expression BB_K50” value (gene BB_K50, immunogenic protein P37) was 0 and the “Expression BB_K52” value (gene BB_K52, lipoprotein) was 0. For the same compound, the “Expression BB_K53” value (gene BB_K53, outer membrane protein) was 0, the “Expression BB_K54” value (gene BB_K54, hypothetical protein) was 0 and the “Expression BB_K0058” value (gene BB_K0058, hypothetical protein) was 0. The “Expression BB_K0059” value (gene BB_K0059, hypothetical protein) was 0, the “Expression BB_L15” value (gene BB_L15, hypothetical protein) was 0 and the “Expression BB_L16” value (gene BB_L16, hypothetical protein) was 0. For the same compound, the “Expression BB_L17” value (gene BB_L17, hypothetical protein) was 0, the “Expression BB_L18” value (gene BB_L18, hypothetical protein) was 0 and the “Expression BB_L21” value (gene BB_L21, hypothetical protein) was 0. The “Expression BB_L22” value (gene BB_L22, hypothetical protein) was 0, the “Expression BB_L29” value (gene BB_L29, hypothetical protein) was 0 and the “Expression BB_L30” value (gene BB_L30, hypothetical protein) was 1. For the same compound, the “Expression BB_L31” value (gene BB_L31, hypothetical protein) was 0, the “Expression BB_L32” value (gene BB_L32, PF-32 protein) was 0 and the “Expression BB_N08” value (gene BB_N08, hypothetical protein) was 0. The “Expression BB_N33” value (gene BB_N33, PF-49 protein) was 1, the “Expression BB_Q03” value (gene BB_Q03, outer membrane protein) was 0 and the “Expression BB_Q05” value (gene BB_Q05, antigen, P35) was 0. The “Expression BB_Q07” value (gene BB_Q07, plasmid partition protein) was 0, the “Expression BB_Q08” value (gene BB_Q08, PF-32 protein) was 0 and the “Expression BB_Q09” value (gene BB_Q09, hypothetical protein) was 0. The “Expression BB_Q40” value (gene BB_Q40, PF-32 protein) was 0, the “Expression BB_Q48” value (gene BB_Q48, hypothetical protein) was 0 and the “Expression BB_Q49” value (gene BB_Q49, hypothetical protein) was 0. For the same compound, the “Expression BB_Q67” value (gene BB_Q67, adenine specific DNA methyltransferase) was 0, the “Expression BB_Q89” value (gene BB_Q89, lipoprotein) was 5 and the “Expression BB_T01” value (gene BB_T01, hypothetical protein) was 0. The “Expression BB_T02” value (gene BB_T02, hypothetical protein) was 0, the “Expression BB_T03” value (gene BB_T03, hypothetical protein) was 0 and the “Expression BB_T04” value (gene BB_T04, hypothetical protein) was 0. For the same compound, the “Expression BB_T06” value (gene BB_T06, Sua5/YciO/YrdC/YwlC family protein) was 0, the “Expression BB_T07” value (gene BB_T07, outer membrane protein) was 0 and the “Expression BB_U01” value (gene BB_U01, hypothetical protein) was 0. The “Expression BB_U02” value (gene BB_U02, hypothetical protein) was 2 and the “Expression BB_U04” value (gene BB_U04, protein BBC01) was 0.
